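Five compound concentrations were applied to cells in 96-well plates for 48 hours; endpoints were derived by simple linear interpolation of the resulting dose-response curve. GI50: concentration for 50% inhibition of growth. Definition used: TGI = concentration required for complete inhibition of growth.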
How the values were obtained:
Assay in all cases: NCI anticancer screen, dose series, 48 h
[1] = system: HCC-2998 colon
[2] = system: COLO 205 colon
[3] = system: A549 NSCLC
[4] = system: OVCAR-4 ovarian
[5] = system: K-562 leukemia
[6] = system: IGROV1 ovarian
[7] = system: NCI-H522 lung
[8] = system: 786-0 renal
[9] = system: SF-295 CNS
[10] = system: BT-549 breast

SMILES | GI50 [1] | TGI [1] | GI50 [2] | TGI [2] | GI50 [3] | TGI [3] | GI50 [4] | TGI [4] | GI50 [5] | TGI [5] | GI50 [6] | TGI [6] | GI50 [7] | TGI [7] | GI50 [8] | TGI [8] | GI50 [9] | TGI [9] | GI50 [10] | TGI [10]
CC(C)(C)c1ccc(NS(=O)(=O)c2ccc3nc(NC(=O)c4cnccn4)[nH]c3c2)cc1 | 5.19 µM | 18.9 µM | 4.1 µM | 20.9 µM | 2.58 µM | 16.5 µM | 5.37 µM | 19.3 µM | 2.38 µM | > 100 µM | 1.49 µM | 13.9 µM | 1.64 µM | 13.6 µM | 3.35 µM | 14.8 µM | 0.743 µM | 5.09 µM | 6.15 µM | 22.3 µM
COc1c(B(O)O)cc(F)cc1-c1nc2ccc3[nH]ncc3c2c2c1CCCC2 | 2.08 µM | 5.61 µM | 1.61 µM | 4.97 µM | 1.17 µM | 16 µM | 3.8 µM | 12.1 µM | 3.27 µM | > 100 µM | 1.49 µM | 11.2 µM | 1.03 µM | 11.7 µM | 0.279 µM | 5.84 µM | 1.76 µM | 10.8 µM | 0.044 µM | 1.76 µM
C=CC(COC(c1ccccc1)(c1ccccc1)c1ccccc1)N(CC)CC (stereo not given) | 4.28 µM | 16.4 µM | 1.7 µM | 3.4 µM | 5.16 µM | 18.4 µM | 4.74 µM | 17.5 µM | 2.07 µM | 5.86 µM | 5.09 µM | 20.1 µM | 4.18 µM | 15.2 µM | 11.4 µM | 27.7 µM | 1.74 µM | 3.78 µM | 14.7 µM | 30.3 µM
O=C(NC(=S)Nc1cc(Cl)ccc1O)c1cccc(Br)c1 | 13.6 µM | > 100 µM | 34.1 µM | > 100 µM | 6.19 µM | > 100 µM | 4.7 µM | > 100 µM | 4.94 µM | > 100 µM | 9.67 µM | > 100 µM | 6.65 µM | > 100 µM | 38 µM | > 100 µM | 3.59 µM | 24.9 µM | 62.9 µM | > 100 µM
O=C(O)c1cc2ccccc2c2c1C(=O)c1ccccc1-2 | – | > 100 µM | – | > 100 µM | – | > 100 µM | – | > 100 µM | – | > 100 µM | – | > 100 µM | – | > 100 µM | – | > 100 µM | – | > 100 µM | – | > 100 µM
CCSc1ccc(C2C(Br)C(=O)N2c2cc(OC)c(OC)c(OC)c2)cc1 (stereo not given) | 0.673 µM | 29.1 µM | 0.23 µM | 0.823 µM | 0.598 µM | > 100 µM | 1.43 µM | 40.5 µM | 0.0545 µM | > 100 µM | 0.63 µM | 20.9 µM | 0.158 µM | 4.19 µM | 0.34 µM | 13.1 µM | 0.087 µM | > 100 µM | 0.525 µM | 11.8 µM
CC1(C)C(=O)/C(=C\c2cccnc2)C[C@]2(C)[C@H]3CC[C@@H]4[C@@H](C(=O)/C=C/c5ccncc5)CC[C@@]4(C)[C@]3(C)CC[C@@H]12 | 2.1 µM | 3.84 µM | 1.88 µM | 3.87 µM | 2.62 µM | 10.7 µM | 2.55 µM | 9.89 µM | 1.2 µM | > 100 µM | 2.03 µM | 4.05 µM | 1.66 µM | 4.6 µM | 1.85 µM | 3.41 µM | 1.95 µM | 4.31 µM | 1.59 µM | 3.35 µM
CCN(c1cc(C#CCN2CCOCC2)cc(C(=O)NCc2c(C)cc(C)[nH]c2=O)c1C)C1CCC(N(C)CCOC)CC1 (stereo not given) | > 100 µM | > 100 µM | > 100 µM | > 100 µM | > 100 µM | > 100 µM | > 100 µM | > 100 µM | > 100 µM | > 100 µM | > 100 µM | > 100 µM | > 100 µM | > 100 µM | > 100 µM | > 100 µM | > 100 µM | > 100 µM | > 100 µM | > 100 µM

Reference: PubChem BioAssay (NCI)
